Laboratory results as given in the NIST ThermoML archive (doi:10.1021/je7005743).

Columns and labels:
[1] = 298.15 K; 101.33 kPa; Liquid; Pycnometric method
[2] = excess molar enthalpy (molar enthalpy of mixing); xn = mol fraction of the nth substance listed; conditions: 303.15 K, 101 kPa, Liquid, Flow calorimetry

CC(C)CC(C)(C)C [2,2,4-trimethylpentane]
Conditions | mass density [kg/m3]
[1] | 687.91

CC(C)CC(C)(C)C [2,2,4-trimethylpentane] + CCO
[2]
Conditions | excess molar enthalpy [kcal/mol]
x2 = 0.1291 | 0.13
x2 = 0.2383 | 0.152
x2 = 0.332 | 0.158
x2 = 0.4132 | 0.157
x2 = 0.4842 | 0.153
x2 = 0.5469 | 0.146
x2 = 0.6026 | 0.138
x2 = 0.6525 | 0.129
x2 = 0.6974 | 0.12
x2 = 0.738 | 0.11
x2 = 0.7749 | 0.1
x2 = 0.8086 | 0.0898
x2 = 0.8395 | 0.0797
x2 = 0.8679 | 0.069
x2 = 0.8942 | 0.0582
x2 = 0.9185 | 0.0473
x2 = 0.941 | 0.0357
x2 = 0.962 | 0.024
x2 = 0.9817 | 0.012

CCCCO [butan-1-ol]
Conditions | mass density [kg/m3]
[1] | 805.76

CCC(C)O (centres undefined) [butan-2-ol]
Conditions | mass density [kg/m3]
[1] | 802.57

CCO [ethanol]
Conditions | mass density [kg/m3]
[1] | 785.32

CCCO [propan-1-ol]
Conditions | mass density [kg/m3]
[1] | 799.94

CC(C)O [propan-2-ol]
Conditions | mass density [kg/m3]
[1] | 781.32

C=COCCC [propyl vinyl ether]
Conditions | mass density [kg/m3]
[1] | 762.96

C=COCCC [propyl vinyl ether] + CC(C)CC(C)(C)C
[2]
Conditions | excess molar enthalpy [kcal/mol]
x1 = 0.0715 | 0.0253
x1 = 0.1398 | 0.0464
x1 = 0.2052 | 0.0635
x1 = 0.2678 | 0.0775
x1 = 0.3278 | 0.0878
x1 = 0.3853 | 0.0954
x1 = 0.4406 | 0.1
x1 = 0.4937 | 0.103
x1 = 0.5448 | 0.103
x1 = 0.5939 | 0.101
x1 = 0.6413 | 0.097
x1 = 0.6869 | 0.0917
x1 = 0.7309 | 0.0846
x1 = 0.7734 | 0.0758
x1 = 0.8144 | 0.0658
x1 = 0.854 | 0.0547
x1 = 0.8923 | 0.0418
x1 = 0.9294 | 0.0277
x1 = 0.9653 | 0.0138

C=COCCC [propyl vinyl ether] + CCO
[2]
Conditions | excess molar enthalpy [kcal/mol]
x1 = 0.0265 | 0.014
x1 = 0.0543 | 0.0284
x1 = 0.0836 | 0.0441
x1 = 0.1145 | 0.0602
x1 = 0.147 | 0.0766
x1 = 0.1814 | 0.0936
x1 = 0.2178 | 0.111
x1 = 0.2564 | 0.129
x1 = 0.2973 | 0.146
x1 = 0.3409 | 0.164
x1 = 0.3873 | 0.179
x1 = 0.4368 | 0.195
x1 = 0.4899 | 0.209
x1 = 0.5468 | 0.221
x1 = 0.608 | 0.229
x1 = 0.6741 | 0.233
x1 = 0.7456 | 0.227
x1 = 0.8231 | 0.207
x1 = 0.9076 | 0.157
